Test results from BindingDB's records for doi:10.1021/acs.jmedchem.9b01169 (Boehringer Ingelheim Rcv, 2019).

assay: Inhibition of wild type EGFR in mouse BAF3 cells assessed as reduction in cell proliferation incubated for 72 hrs by Celltiter-Glo luminescent cell viability assay

Row | Structure (SMILES) | IC50
1 | Cn1cc(-c2cc(C(=O)/N=c3\[nH]c4ccccc4n3CC(C)(C)O)ccn2)cn1 | 5100 nM
2 | Cc1cc2cc(n1)-c1cnn(C)c1OCCC[C@@H](C)CN1/C(=N/C2=O)Nc2ccccc21 | 1100 nM
3 | O=C1/N=C2\Nc3ccccc3N2CCCCCOc2ccccc2-c2cc1ccn2 | 1300 nM
4 | CC(C)(O)Cn1/c(=N/C(=O)c2ccnc(-c3ccccc3)c2)[nH]c2ccccc21 | > 10000 nM
5 | COc1ccncc1-c1cc(C(=O)/N=c2\[nH]c3ccccc3n2CC(C)(C)O)ccn1 | 700 nM
6 | Cn1ncc2c1OCCCCCN1/C(=N/C(=O)c3cc(F)nc-2c3)Nc2ccccc21 | 270 nM
7 | Cc1cc2cc(n1)-c1cnn(C)c1OCCCCCN1/C(=N/C2=O)Nc2ccccc21 | 2300 nM
